Earlier results in patent US6335361B1, “Method of treating benign forgetfulness” (Juvenon Inc., priority 1999, dated 2002).
Read-outs that look alike come from different tables or passages of the source. Blank lines part the entries; values can stand above or below the molecule they belong to.

Key:
oxidant production = details: carnitine supplementation
[1] = men over 60, 5 days
[2] = older adults 67-80 years, 8 weeks
[3] = test system: human plasma LDL phospholipids; details: healthy Finnish men and women, Q10 supplementation
mitochondria [4] = details: through action in the mitochondria
[5] = daily supplements up to 200 mg for 6-12 months and 100 mg daily for up to 6 y
striatal nerves = details: mice, Q10 diet four weeks before and one week after MPTP
mice = details: male mice, life-long supplementation
[6] = woman deficient in Q10, 150 mg/kg
[7] = test system: oxidative phosphorylation in skeletal muscles and brains; details: patients with mitochondrial cytopathies due to enzyme defects
mitochondria [8] = test system: mitochondria

cell antioxidants (oxidant production): decreased cell antioxidants markedly
increase of oxidant production (oxidant production): 30%
Compound: C[N+](C)(C)CC(O)CC(=O)[O-] (stereo not drawn) [carnitine]

Compound: O=C(O)CCCC[C@@H]1CCSS1 [R-α-alipoic acid, R-α-lipoic acid]
ambulatory activity of aged rats (aged rats; aged rats): triple
age-related decline in mitochondrial membrane potential (aged rats; rat, in vivo): restore
age-related decrease in oxygen consumption (aged rats; rat, in vivo): reverse
age-related increase in oxidants (aged rats; rat, in vivo): significantly lower
glutathione and ascorbic acid levels (aged rats; rat, in vivo): to youthful levels

Compound: CN(CC(=O)O)C(=N)N [creatine]
time to exhaustion (phosphocreatine (PCr); both groups combined): increased
increase of resting PCr (phosphocreatine (PCr); middle-aged group (50-year-olds), P<0.05): 30%
mean initial PCr resynthesis rate (phosphocreatine (PCr); middle-aged group, P<0.05): increased significantly
increase of resting PCr (phosphocreatine (PCr); young group (30-year-olds), P<0.05): 15%
isokinetic performance and body mass [1]: only small increases
isometric strength [1]: no effect
1- and 12-repetitions maxima, effect of creatine supplementation [2]: no beneficial effect
safety (1.5 g-25 g/day for at least a year): safe
adverse effects (athletes, up to 75 grams a day for years, aside from weight gain): without known adverse effects
skeletal muscle strength and endurance (older individuals (40-73), 20 g/day, one week): increased

Compound: COc1c(O)c(C)c(C/C=C(\C)CC/C=C(\C)CC/C=C(\C)CC/C=C(\C)CC/C=C(\C)CC/C=C(\C)CC/C=C(\C)CC/C=C(\C)CC/C=C(\C)CCC=C(C)C)c(O)c1OC [ubiquinol-10]
oxidative damage to DNA of human lymphocytes (human lymphocytes): appears to protect

Compound: COC1=C(OC)C(=O)C(C/C=C(\C)CC/C=C(\C)CC/C=C(\C)CC/C=C(\C)CC/C=C(\C)CC/C=C(\C)CC/C=C(\C)CC/C=C(\C)CC/C=C(\C)CCC=C(C)C)=C(C)C1=O [Q10, Coenzyme Q10]
peroxyl radical-trapping capacity [3]: doubled
programmed cell death, or apoptosis (mitochondria [4]): appears to block
effect on doxorubicin-induced oxidant production and mtDNA deletions (cardiac tissue; cardiac tissue): blocks the effects of doxorubicin
adverse effects [5]: No important adverse effects
dopamine, higher than control diet (striatal nerves): 37%
more dense neurons than control diet (striatal nerves): 62%
Q10 levels in kidney, heart and brain (rats; Q10 supplementation): not affected
lifespan (rats; male rats, life-long supplementation): did not prolong or shorten
plasma and liver levels (rats; supplemented rats): 2.6-8.4 times higher
lifespan (mice): did not prolong or shorten
clinical response [6]: rapidly improved
oxidative phosphorylation in skeletal muscles and brains [7]: marked improvement

Compound: CC(=O)O[C@H](CC(=O)[O-])C[N+](C)(C)C [ALC, acetyl-L-carnitine]
age-related decrease in cardiolipin, mtDNA transcription and membrane potential (mitochondria [8]): reverse
age-related dysfunction of carnitine-acetyl-carnitine exchange across the inner mitochondrial membrane (mitochondria [8]): slow or reverse

Compound: COc1cccc2c1C(=O)c1c(O)c3c(c(O)c1C2=O)C[C@@](O)(C(=O)CO)C[C@@H]3O[C@H]1C[C@H](N)[C@H](O)[C@H](C)O1 [doxorubicin]
mitochondrial oxidant production (cardiac tissue; doxorubicin by itself): stimulates
mtDNA deletions in cardiac tissue (cardiac tissue; doxorubicin by itself): marked increase

Compound: C[N+](C)(C)C[C@H](O)CC(=O)[O-] [L-carnitine]
age-related decrease in cardiolipin, mtDNA transcription and membrane potential (mitochondria [8]): reverse
age-related dysfunction of carnitine-acetyl-carnitine exchange across the inner mitochondrial membrane (mitochondria [8]): slow or reverse
